Experimental data reported in patent US20100248255A1, “NOVEL PEPTIDES” (KYOWA HAKKO KOGYO CO., LTD, priority 2005, published 2010).
“Also recorded” adds a separate entry of the source. No end group written: not given here.

Legend:
[1] = test system: bone; test: Aequorin luminescence, bone of apoaequorin-expressing mice; type: cell-based, mouse; details: organ pieces, peptide final concentrations of 1 μmol/L and of 5 μmol/L
Text: (§1) Whether Peptides 1 to 5, 9 and 10 synthesized in Example 2 have the activity of increasing intracellular calcium ion concentration was investigated using the organs of transgenic mice introduced with the apoaequorin gene and systemically expressing apoaequorin (hereinafter referred to as apoaequorin-expressing mice). In apoaequorin-expressing mouse cells, light is emitted when apoaequorin binds to a calcium ion in the presence of the luminescent substrate coelenterazine and thus the intracellular calcium ion concentration can be monitored. Patent Document (WO02/010371) discloses the method for producing apoaequorin-expressing mice, method for evaluating biologically active substances that use biological samples derived from the mice, and experimental results of evaluating biologically active peptides using the mouse organs as shown below. […]
(§2) Apoaequorin-expressing mice were produced according to the method disclosed in Reference Example 4 of Patent Document (WO02/010371). […] After culturing, RPMI 1640 medium was added, and then Peptides 1 to 5, 9 and 10 dissolved in RPMI 1640 medium were added 25 seconds after the addition of RPMI 1640 until each peptide had final concentrations of 1 μmol/L and of 5 μmol/L, and the relative luminescence levels were measured every second immediately after the addition of RPMI 1640 medium by using a luminometer (AutoLumat LB953, manufactured by Berthold).

[2] = test system: uterus; test: Aequorin luminescence, uterus of apoaequorin-expressing mice; type: cell-based, mouse; details: organ pieces, peptide final concentrations of 1 μmol/L and of 5 μmol/L
Text: (§3) Whether Peptides 1 to 5, 9 and 10 synthesized in Example 2 have the activity of increasing intracellular calcium ion concentration was investigated using the organs of transgenic mice introduced with the apoaequorin gene and systemically expressing apoaequorin (hereinafter referred to as apoaequorin-expressing mice). In apoaequorin-expressing mouse cells, light is emitted when apoaequorin binds to a calcium ion in the presence of the luminescent substrate coelenterazine and thus the intracellular calcium ion concentration can be monitored. Patent Document (WO02/010371) discloses the method for producing apoaequorin-expressing mice, method for evaluating biologically active substances that use biological samples derived from the mice, and experimental results of evaluating biologically active peptides using the mouse organs as shown below. […] Therefore, apoaequorin-expressing mice can be used in the evaluation of the physiological activities of novel peptides.
(§4) Apoaequorin-expressing mice were produced according to the method disclosed in Reference Example 4 of Patent Document (WO02/010371). The apoaequorin-expressing mice were sacrificed, individual organs including thymus, spleen, bone, blood vessel, heart, kidney, adrenal gland, pancreas, pituitary gland, and uterus, were removed; and each of the organs was cut into small cubes of approximately 1 to 2 mm^3. Next, in 5-mL tubes (Rohren-Tubes; manufactured by Sarstedt, No. 55.476), three portions of each of the prepared organs were added to 50 μL of a 10 μmol/L solution of coelenterazine (manufactured by Molecular Probes) dissolved in RPMI 1640 medium, and these were cultured at 37° C. for three hours. After culturing, RPMI 1640 medium was added, and then Peptides 1 to 5, 9 and 10 dissolved in RPMI 1640 medium were added 25 seconds after the addition of RPMI 1640 until each peptide had final concentrations of 1 μmol/L and of 5 μmol/L, and the relative luminescence levels were measured every second immediately after the addition of RPMI 1640 medium by using a luminometer (AutoLumat LB953, manufactured by Berthold).

[3] = test system: kidney; test: Aequorin luminescence, kidney of apoaequorin-expressing mice; type: cell-based, mouse; details: organ pieces, peptide final concentrations of 1 μmol/L and of 5 μmol/L
Text: as §1, §2

[4] = test system: adrenal gland; test: Aequorin luminescence, adrenal gland of apoaequorin-expressing mice; type: cell-based, mouse; details: organ pieces, peptide final concentrations of 1 μmol/L and of 5 μmol/L
Text: as §1, §2

[5] = test system: pituitary gland; test: Aequorin luminescence, pituitary gland of apoaequorin-expressing mice; type: cell-based, mouse; details: organ pieces, peptide final concentrations of 1 μmol/L and of 5 μmol/L
Text: as §3, §4

[6] = test system: vascular cells of the apoaequorin-expressing mice; test: Intracellular calcium ion increase (aequorin luminescence), blood vessel of apoaequorin-expressing mice; type: cell-based, mouse; details: for luminescence in the blood vessel: organ pieces, peptide final concentrations of 1 μmol/L and of 5 μmol/L
Description: (§5) A heart or blood vessel is collected from transgenic mice systemically expressing apoaequorin (WO02/010371) produced by introducing an apoaequorin gene expression vector into fertilized eggs. The obtained heart or blood vessel is cut finely into pieces, suspended in a medium containing coelenterazine, and then incubated to incorporate coelenterazine into the cells to form aequorin (a complex of apoaequorin and coelenterazine). Since aequorin luminesces upon binding to intracellular calcium ions, the relative luminescence level in cells before and after addition of a medium containing the peptide or a pharmaceutically acceptable salt thereof is measured in a luminometer every second over time and is used as an indicator of intracellular calcium ion concentration. Increase in the relative luminescence level due to addition of the peptide or pharmaceutically acceptable salt thereof confirms that the peptide or pharmaceutically acceptable salt thereof has the activity to increase intracellular calcium ion concentration.
as §3, §4

[7] = test system: cardiac cells of the apoaequorin-expressing mice; test: Intracellular calcium ion increase (aequorin luminescence), heart of apoaequorin-expressing mice; type: cell-based, mouse; details: for intracellular calcium concentration in cardiac cells (RLU per second): 1 μmol/L of peptide, added at 25 seconds; for luminescence in the heart: organ pieces, peptide final concentrations of 1 μmol/L and of 5 μmol/L
Description: as §5, §3, §4

[8] = test system: spleen; test: Aequorin luminescence, spleen of apoaequorin-expressing mice; type: cell-based, mouse; details: organ pieces, peptide final concentrations of 1 μmol/L and of 5 μmol/L
Text: as §3, §4

[9] = test system: thymus; test: Aequorin luminescence, thymus of apoaequorin-expressing mice; type: cell-based, mouse; details: organ pieces, peptide final concentrations of 1 μmol/L and of 5 μmol/L
Text: as §3, §4

[10] = test system: antiserum (rabbit, Peptide 7-KLH conjugate as antigen); test: Binding specificity of antiserum by competitive RIA with [125I]-labeled Peptide 1; details: for inhibition of antiserum binding to [125I]-labeled Peptide 1: VGF-derived peptides, sequentially diluted
Description: As controls, reactions that use RIA buffer instead of the antiserum to measure non-specific binding, and reactions […] that use RIA buffer instead of VGF-derived peptide solutions to measure the maximum binding level were carried out. Reactions for non-specific binding were performed in quadruplicates, and the other reactions were performed in duplicates, and for each of the reactants, the immune complex was precipitated as in the above-mentioned antibody titer measurements, and its radioactivity (cpm) was measured. The average radioactivity of non-specific binding reaction is defined as non-specific binding level N, the radioactivity value for each VGF-derived peptide addition reaction is defined as Y, and the radioactivity value of maximum binding reaction is defined as Z. The percentage ratio (B/B0) of antiserum specific binding level (B) with peptide addition to the maximum binding level (B0), was determined using the following formula.
B/B0 (%)={(Y−N)/(Z−N)}×100
Accordingly, the amount of peptide that achieves 50% B/B0, more specifically, the amount of peptide that yields 50% inhibition of the maximum binding level, was used as an indicator of the peptide binding activity to the antiserum.
The amounts of peptide/tube used for performing the measurements were 0.5, 1, 2, 4, 8, 16, 32, 64, 128, 256, 512 and 1024 fmol for Peptide 1; 1, 2, 4, 8, 16, 32, 64, 128, 256, 512 and 1024 fmol for Peptide 2; 1, 3.3, 10, 33, 100, 333, 1000, 3300, 10,000, 33,000, 100,000, 333,000 and 1,000,000 fmol for Peptide 3; and 1,000, 10,000, 100,000 and 1,000,000 fmol for Peptide 8.

[11] = Effect on rat blood pressure (anesthetized rats, bolus injection); type: in vivo; details: 300 nmol in saline, bolus injection into external jugular vein, anesthetized male Wistar rats
Description: Catheters are inserted into the external jugular vein and internal carotid artery of an anesthetized animal such as rat or the like, and arterial pressure is measured continuously by connecting the catheter in the internal carotid artery to a blood pressure monitor. The peptide or pharmaceutically acceptable salt dissolved in physiological saline is administered through the external jugular vein.
Wistar rats (male, 10-weeks old, 250 to 300 g) were anesthetized by intraperitoneally administering Pentobarbital at 50 mg/kg body weight. Catheters were inserted into the external jugular vein and internal carotid artery of the anesthetized rats; the catheter in the internal carotid artery was connected to a blood pressure monitor; 300 nmol of Peptide 2 dissolved in saline (100 μL) was administered from the external jugular vein by bolus injection; and blood pressure was measured continuously.

antiserum binding relative to the Peptide 1 binding ([10]; fraction of the Peptide 1 binding)	amount required to show the same degree of inhibition as Peptides 1 and 2 ([10]; relative to Peptides 1 and 2)	Substance	luminescence in the bone [1]	luminescence in the uterus [2]	luminescence in the kidney [3]	luminescence in the adrenal gland [4]	luminescence in the pituitary gland [5]	luminescence in the blood vessel [6]	intracellular calcium concentration in cardiac cells (RLU per second) [7]	luminescence in the heart [7]	luminescence in the spleen [8]	luminescence in the thymus [9]	inhibition of antiserum binding to [125I]-labeled Peptide 1 [10]	change in average arterial blood pressure [11]	intracellular calcium concentration in vascular cells (RLU per second) ([6]; 5 μmol/L of peptide, added at 25 seconds)
1/10000	approximately 10,000 folds	Peptide 3: positions 554 to 583 of the amino acid sequence of human VGF, termini unmodified (H-TLQPPSALRRRHYHHALPPSRHYPGREAQA-OH)	luminescence was observed	luminescence was observed	luminescence was observed	luminescence was observed	luminescence was observed	luminescence was observed	increase of intracellular calcium concentration	luminescence was observed	luminescence was observed	luminescence was observed	dose-dependent inhibition of antiserum binding but the inhibition was weak		
		Peptide 2: positions 554 to 577 of human VGF (SEQ ID NO: 3) with C-terminal amide (TLQPPSALRRRHYHHALPPSRHYP-NH2)	luminescence was observed	luminescence was observed				luminescence was observed	increase of intracellular calcium concentration	luminescence was observed	luminescence was observed	luminescence was observed	same degree of quantity-dependent inhibition	obvious increase in blood pressure; also recorded: increase of blood pressure	increase of intracellular calcium concentration
